{"source": "patent US20140011773A1", "about": "“Pro-drug Compounds” (Proximagen Limited, priority 2012, published 2014)", "key": {"[1]": {"experiment": "Pharmacokinetics: plasma levels after intravenous dosing to rats", "type": "in vivo", "settings": "male, Sprague Dawley, rat, 0.95 mg/kg IV, read-out: Plasma level of Example 2", "experimental": "(§1) Example prodrugs were dosed either intravenously or orally to fasted male Sprague Dawley rats. The rats underwent surgery for jugular vein cannulation 48 hrs prior to dosing. Following dosing, 0.25 mL blood samples were taken via the cannulae at 0, 5, 10, 20, 30, 45, 60, 120, 240 & 360 minutes in EDTA coated tubes. Tubes were spun at 13,000 rpm for 4 minutes and 100 ul of supernatant taken immediately and stored at −80° C. prior to analysis. Plasma samples were analysed by LC-MS/MS following extraction by protein precipitation, and levels of parent prodrug and tonabersat were measured by MRM (Multiple Reaction Monitoring) analysis against an extracted calibration curve of plasma samples spiked with the Example prodrug and tonabersat.\nExample 2 was dosed according to this protocol at 0.95 mg/kg IV. […] Plasma levels of tonabersat were determined to be 130 ng/mL at 5 min and 115 ng/mL at 6 hrs clearly showing conversion of the prodrug to tonabersat over this timecourse following intravenous dosing."}, "[2]": {"experiment": "Pharmacokinetics: plasma levels after oral dosing to rats", "type": "in vivo", "settings": "male, Sprague Dawley, 6.1 mg/kg, rat, 6.10 mg/kg PO, read-out: Plasma level of Example 2", "experimental": "as §1\nExample 2 was dosed according to this protocol at 6.10 mg/kg PO. […] Plasma levels of tonabersat were determined to be 63 ng/mL at 5 min and 900 ng/mL at 6 hrs clearly showing conversion of the prodrug to tonabersat over this timecourse following oral dosing."}, "[3]": {"system": "unique stereo-selective site in rat brains", "settings": "rat brain; cited from earlier work"}, "[4]": {"system": "high K+ evoked CSD", "settings": "cats; cited from earlier work"}, "[5]": {"system": "high K+ evoked CSD", "settings": "rats; cited from earlier work"}, "[6]": {"system": "unique stereo-selective site in human brains", "settings": "human brain; cited from earlier work"}}, "note": "Counter-ions that a name gives are not always drawn. Like-named read-outs stand apart in the source and are kept apart here.", "data": [{"smiles": "CC(=O)c1ccc2c(c1)[C@H](NC(=O)c1ccc(F)c(Cl)c1)[C@H](OC(=O)CN(C)C)C(C)(C)O2", "note": "[Example 2, (3S,4S)-6-Acetyl-4-[(3-chloro-4-fluorobenzene)amido]-2,2-dimethyl-3,4-dihydro-2H-1-benzopyran-3-yl 2-(dimethylamino)acetate hydrochloride]", "values": [{"measurement": "concentration at 5 min", "setting": "[1]; at 5 min", "result": 730, "unit": "ng/mL"}, {"measurement": "concentration at 6 h", "setting": "[1]; at 6 hrs", "result": "< 5", "unit": "ng/mL"}, {"measurement": "concentration at 5 min", "setting": "[2]; at 5 min", "result": 38, "unit": "ng/mL"}, {"measurement": "concentration at 6 h", "setting": "[2]; at 6 hrs", "result": "< 5", "unit": "ng/mL"}]}, {"smiles": "CC(=O)c1ccc2c(c1)[C@H](NC(=O)c1ccc(F)c(Cl)c1)[C@H](O)C(C)(C)O2", "note": "[Tonabersat]", "values": [{"measurement": "binding affinity", "setting": "[3]", "result": "binds selectively and with high affinity"}, {"measurement": "inhibition of high K+ evoked CSD", "setting": "[4]", "result": "inhibits high K+ evoked CSD"}, {"measurement": "inhibition of high K+ evoked CSD", "setting": "[5]", "result": "inhibits high K+ evoked CSD"}, {"measurement": "binding affinity", "setting": "[6]", "result": "binds selectively and with high affinity"}]}]}
